These compounds were tested against Sodium channel protein type 9 subunit alpha (Homo sapiens, UniProt Q15858) (assay: Radioligand Binding Assay (EP) (In vitro Assay)). Details: pH 7.4; 25 °C.
Chain of Sodium channel protein type 9 subunit alpha (Q15858 whole entry): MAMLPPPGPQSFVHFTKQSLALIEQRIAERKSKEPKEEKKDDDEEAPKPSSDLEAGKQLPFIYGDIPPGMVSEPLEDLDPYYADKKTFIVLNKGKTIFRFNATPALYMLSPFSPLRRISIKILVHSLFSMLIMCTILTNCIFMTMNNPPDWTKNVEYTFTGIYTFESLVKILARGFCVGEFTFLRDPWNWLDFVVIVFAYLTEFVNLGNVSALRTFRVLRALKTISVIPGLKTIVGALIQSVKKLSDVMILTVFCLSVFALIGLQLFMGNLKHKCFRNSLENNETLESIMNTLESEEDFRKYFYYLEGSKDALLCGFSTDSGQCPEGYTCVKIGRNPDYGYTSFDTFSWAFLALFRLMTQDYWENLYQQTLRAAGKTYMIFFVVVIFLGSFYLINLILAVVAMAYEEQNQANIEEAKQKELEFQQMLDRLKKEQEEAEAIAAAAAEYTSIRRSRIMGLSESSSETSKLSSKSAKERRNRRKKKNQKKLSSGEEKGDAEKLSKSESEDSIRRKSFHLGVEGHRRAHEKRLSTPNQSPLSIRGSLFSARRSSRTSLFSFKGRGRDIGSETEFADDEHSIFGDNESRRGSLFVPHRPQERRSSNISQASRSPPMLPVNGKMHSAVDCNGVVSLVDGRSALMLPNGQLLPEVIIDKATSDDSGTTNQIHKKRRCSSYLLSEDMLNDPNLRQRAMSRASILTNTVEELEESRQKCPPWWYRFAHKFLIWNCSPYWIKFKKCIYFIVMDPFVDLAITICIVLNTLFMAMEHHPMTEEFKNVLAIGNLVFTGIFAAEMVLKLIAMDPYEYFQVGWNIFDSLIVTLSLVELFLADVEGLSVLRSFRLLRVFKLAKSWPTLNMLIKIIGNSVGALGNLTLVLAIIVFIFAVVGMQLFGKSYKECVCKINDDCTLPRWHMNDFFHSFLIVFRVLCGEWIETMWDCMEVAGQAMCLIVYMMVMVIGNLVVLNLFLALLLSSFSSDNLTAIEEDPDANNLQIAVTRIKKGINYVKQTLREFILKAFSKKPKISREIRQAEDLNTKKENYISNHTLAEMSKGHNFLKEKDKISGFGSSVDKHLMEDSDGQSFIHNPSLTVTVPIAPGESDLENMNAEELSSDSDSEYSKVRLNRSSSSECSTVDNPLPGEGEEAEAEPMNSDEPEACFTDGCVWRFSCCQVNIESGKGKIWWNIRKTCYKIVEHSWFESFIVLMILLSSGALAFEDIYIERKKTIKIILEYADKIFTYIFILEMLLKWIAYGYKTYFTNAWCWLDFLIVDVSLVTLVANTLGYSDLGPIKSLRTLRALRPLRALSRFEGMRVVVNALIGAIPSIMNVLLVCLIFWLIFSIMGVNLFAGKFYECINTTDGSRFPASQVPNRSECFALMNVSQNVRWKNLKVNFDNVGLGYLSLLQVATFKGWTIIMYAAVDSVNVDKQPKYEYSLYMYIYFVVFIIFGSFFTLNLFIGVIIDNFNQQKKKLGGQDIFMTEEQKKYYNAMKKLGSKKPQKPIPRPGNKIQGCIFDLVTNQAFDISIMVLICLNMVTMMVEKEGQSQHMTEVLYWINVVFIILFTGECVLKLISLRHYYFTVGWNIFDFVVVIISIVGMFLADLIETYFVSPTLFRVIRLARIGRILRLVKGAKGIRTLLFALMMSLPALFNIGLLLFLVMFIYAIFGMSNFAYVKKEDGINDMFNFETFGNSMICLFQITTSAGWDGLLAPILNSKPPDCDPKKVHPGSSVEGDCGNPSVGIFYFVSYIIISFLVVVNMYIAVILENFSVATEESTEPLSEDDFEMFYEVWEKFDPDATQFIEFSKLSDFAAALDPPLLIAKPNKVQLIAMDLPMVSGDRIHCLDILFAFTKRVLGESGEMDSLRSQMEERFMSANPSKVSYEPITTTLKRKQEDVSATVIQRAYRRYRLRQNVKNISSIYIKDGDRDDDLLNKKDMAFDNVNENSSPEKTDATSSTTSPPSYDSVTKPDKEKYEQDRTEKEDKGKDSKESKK
Experimental: Binding of this radioligand was preformed in 5 mL borosilicate glass test tubes at room temperature. […] Non-specific binding was determined in the presence of 1 μM unlabelled compound. […] In 360 μL, membranes were incubated with 100 pM [3H]compound and increasing concentrations of Test Compound. Non-specific binding was defined in the presence of 1 μM unlabelled compound. Reactions were transferred and filtered through 96-well glass fiber/C filter plates presoaked with 0.5% polyethylene imine. […] Bound radioactivity was determined by liquid scintillation counting.

Row | Compound | IC50
1 | CC(C)(C)OC(=O)N1CCC(COc2cc(F)c(C(=O)NS(C)(=O)=O)cc2Cl)CC1 [US9546164, 78] | 490 nM
2 | CS(=O)(=O)NC(=O)c1cc(C2CC2)c(OCC2(F)CN(C(c3ccccc3)c3ccccc3)C2)cc1F [US9546164, 67] | 7.9 nM
3 | O=C(NS(=O)(=O)N1CCC1)c1cc(C2CC2)c(OCC2CC3CCC(C2)N3C(c2ccccc2)c2ccccc2)cc1F (stereo not drawn) [US9546164, 49] | 4.3 nM

More lines, now with the values ahead:

Row | IC50 | Compound
4 | 35.1 nM | CC(c1ccc(OC(F)(F)F)cc1)N1CC(COc2cc(F)c(C(=O)NS(C)(=O)=O)cc2C2CC2)C1 (stereo not drawn) [US9546164, 157]
5 | 40.9 nM | CS(=O)(=O)NC(=O)c1cc(C2CC2)c(OCC2CCN(S(=O)(=O)c3cc(F)c(F)c(F)c3)CC2)cc1F [US9546164, 380]
6 | 2.1 nM | CC1(COc2cc(F)c(C(=O)NS(C)(=O)=O)cc2C2CC2)CCN(Cc2cc(C(F)(F)F)ccc2C(F)(F)F)CC1 [US9546164, 107]
7 | 4.5 nM | CS(=O)(=O)NC(=O)c1cc(C2CC2)c(OCC2(F)CCN(Cc3cc(Cl)ccc3C(F)(F)F)CC2)cc1F [US9546164, 348]
8 | 8.8 nM | O=C(NS(=O)(=O)C1CC1)c1cc(C2CC2)c(OCC2CCN(S(=O)(=O)c3ccc4ccccc4c3)CC2)cc1F [US9546164, 389]

— BindingDB's records for patent US9546164 (Genentech Inc, 2017)
